Assay results from patent publication US12044680B2, “Peptide exchange system and method” (priority 2016, dated 2024).
Like-named read-outs stand apart in the source and are kept apart here. One block for each substance: values may come before it. Ends that are not written are not given here. * marks the point of attachment. DNP = dinitrophenol (DNP) tag on lysine, O=[N+]([O-])c1ccc(*)c([N+](=O)[O-])c1; Dnp = O=[N+]([O-])c1ccc(*)c([N+](=O)[O-])c1

Key:
[1] = target: T1, HLA-A*02:01 tetramers with exiting peptide ILKEKK(DNP)VHGV (Homo sapiens, UniProt P04439, D140Y/D185E/D98H/E176V/E277Q/G131W/G231S/I119V/I121R/I166T/I218V/L300P/L318F/N151K/N90K/P208A/P217A/Q86G/Q94H/R138H/R169H/T345S); assay: HLA-A*02:01 peptide exchange quantitation; type: binding; settings: entering peptide 20 μM final, 4 hours; HLA-A*02:01 tetramer
T1 construct: prepared as known in the art, for instance by deletion of the transmembrane domain and the cytoplasmic domain; made in house
Experimental: Peptide Exchange Procedure: 50 μL of the tetramer solution is combined with 1 μL of peptide exchange factor, such as glycyl methionine, (resulting in a final peptide exchange factor concentration of 5-20 mM) and 1 μL of the peptide solution and the resulting solution was mixed, then incubated at room temperature for four hours.
Sandwich magnetic bead immunoassay: 20 μL capture beads is pipetted into wells 1-4 on a 96-well plate. 5 μL assay buffer is pipetted into well 2. 5 μL of exchanged tetramer is pipetted into well 4. Additional exchanged tetramers may be pipetted into wells 5 and up. The plate is protected from light and shaken for 45 min at 550 rpms/min. 150 μL of assay buffer is dispensed into each well. The plate is placed on a plate magnet and the beads are permitted to sediment for at least 5 minutes.
Separately, a preparation of the FITC-conjugated anti-tag antibody is prepared at 10 μg/mL. 25 μL of the FITC-conjugated anti-tag antibody is pipetted into each well except well 1, and the plate is again protected from light and shaken for 45 min at 550 rpms/min.
150 μL of assay buffer is dispensed into each well, and the plate is placed on a plate magnet. The beads are permitted to sediment for at least 5 minutes. The beads are resuspended in sheath fluid and transferred to labeled flow cytometer tubes (referred to herein by the number of the well they are drawn from), which are then analyzed on a flow cytometer.
Flow Cytometry Analysis: Unused magnetic beads are used to set FSC (forward-scattered light) and SSC (side-scattered light) voltages and gains such that a live gate selects single beads and excludes doublets and larger clumps, see FIG. 1A. […] Tube 1 is run to perform compensation in FL1 in order to eliminate fluorochrome interference in the FITC channel, see FIG. 1C. The FL1 MFI is set to the first log decade, close to that obtained with beads only. Tube 2, which contains beads that have captured no tetramer and therefore no tagged peptide, is run to calibrate the level for 0% tagged peptide, i.e. 100% peptide exchange (see FIG. 1D). In the exemplary data provided here, the MFI is 0.287. Tube 3, which contains a solution where all tetramers display the original tagged peptide, is run to calibrate the level for 100% tagged peptide, i.e. 0% peptide exchange (see FIG. 1E). In the exemplary data provided here, the MFI is 20.4. Tubes 4 and up are run to evaluate the samples. Peptide exchanged tetramers will display various quantities of tagged peptides, depending on their binding affinities to HLA-A*02:01 molecules. Therefore, the FL1 MFI measured will be intermediary between MFI values obtained with tubes 2 and 3. See FIG. 1F, where in the exemplary data provided here, the MFI is 9.37.
(§1) Peptide exchange data were obtained after incubating peptides (20 μM final) with tetramer for 4 hours, then followed by capture with anti HLA-ABC beads and staining with an anti-DNP FITC antibody.

[2] = target: T2, HLA-A*24:02 tetramers with exiting peptide TFQRK(DNP)PAAF (Homo sapiens, UniProt P04439, D101N/D140Y/D185E/E176V/E190D/F33S/G103R/G107R/I119L/I121M/I306V/K335N/L105A/L180Q/L300P/N151K/N90K/Q86E/Q94H/R106L/R138H/R89G/T104I/T345S/V100E/W191G/Y123F); assay: HLA-A*24:02 peptide exchange quantitation; type: binding; settings: competing peptide 20 μM final, 4 hours; HLA-A*24:02 tetramer
T2 construct: prepared as known in the art, for instance by deletion of the transmembrane domain and the cytoplasmic domain; made in house
Experimental: as §1

[3] = target: T3, HLA-A*02:01 tetramers (Homo sapiens, UniProt P04439, D140Y/D185E/D98H/E176V/E277Q/G131W/G231S/I119V/I121R/I166T/I218V/L300P/L318F/N151K/N90K/P208A/P217A/Q86G/Q94H/R138H/R169H/T345S); assay: Comparison of exiting peptides: peptide exchange on HLA-A*02:01 tetramers against […]; type: binding; settings: GM 10 mM; YLLEFTPPV at 10 and 1 μg/mL; compared with ILKEK(DNP)VHGV
T3 construct: prepared as known in the art, for instance by deletion of the transmembrane domain and the cytoplasmic domain; made in house
Experimental: Peptide exchange was performed using two HLA-A*02:01 tetramers at 280 μg/mL made with peptides ILKEKK(DNP)VHGV (SEQ ID NO: 3) and ILKEK(DNP)VHGV (SEQ ID NO: 4). […] Tetramers were captured with beads conjugated with an anti HLA-ABC specific antibody at 10 μg/mL.

[4] = target: T4, HLA-A*02:01 Tetramers containing exiting peptide ILKEKK(DNP)VHGV (Homo sapiens, UniProt P04439, D140Y/D185E/D98H/E176V/E277Q/G131W/G231S/I119V/I121R/I166T/I218V/L300P/L318F/N151K/N90K/P208A/P217A/Q86G/Q94H/R138H/R169H/T345S); assay: Quantified peptide exchange assay of vaccine and individual peptide; type: binding
T4 construct: prepared as known in the art, for instance by deletion of the transmembrane domain and the cytoplasmic domain; made in house
Experimental: Quantified Peptide Exchange Assay: HLA-A*02:01 Tetramers were prepared containing exiting peptide ILKEKK(DNP)VHGV (SEQ ID NO: 3). Peptide exchange was performed against (a) the peptide prepared individually in a buffered solution or (b) in the DPX-Survivac vaccine prepared in an aqueous formulation. HLA-A*02:01 tetramer, and peptide exchange factor glycylmethionine were mixed with each peptide to be tested. Peptide exchange was then quantified by the flow cytometric sandwich immunoassay using magnetic capture beads.
Comparison of Peptide Exchange Assay to T2 HLA-A2 Shift assay: The peptide exchange assay described herein and the T2 HLA-A2 shift assay were conducted on various amounts of peptide per reaction. The results are presented in FIGS. 12D (T2 HLA-A2 shift assay) and 12E (peptide exchange assay), with the three independent repeats shown in diamonds, squares, and triangles. The T2 Shift assay provides a high degree of linearity when applied to the samples containing 10 μg/reaction to 110 μg/reaction of SurA2.M peptide.

[5] = target: T5, H-2 Kb tetramers (Mus musculus, UniProt P01901); assay: Selection of exiting peptide: peptide exchange on H-2 Kb tetramers with competing peptides; type: binding, murine; settings: H-2 Kb tetramers 280 μg/mL; competing peptides 10 μg/mL
T5 construct: prepared as known in the art, for instance by deletion of the transmembrane domain and the cytoplasmic domain; made in house
T5 sequence (P01901 22-305 limits assumed): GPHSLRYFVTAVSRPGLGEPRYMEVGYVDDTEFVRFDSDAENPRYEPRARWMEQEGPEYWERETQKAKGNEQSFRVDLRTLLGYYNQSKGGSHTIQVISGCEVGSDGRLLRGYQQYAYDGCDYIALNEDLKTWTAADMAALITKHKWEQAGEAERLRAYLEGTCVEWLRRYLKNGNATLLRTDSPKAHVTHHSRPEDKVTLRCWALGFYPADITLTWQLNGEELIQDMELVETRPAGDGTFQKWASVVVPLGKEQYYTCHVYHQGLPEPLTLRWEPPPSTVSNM
Experimental: Peptide exchange was performed using two H-2 Kb tetramers at 280 jig/mL that were made with peptides MTYK(DNP)FPVT (SEQ ID NO: 1) and YTVK(DNP)FALV (SEQ ID NO: 2). Exchange was performed in the presence of competing peptides at 10 μg/mL. Tetramers were captured with beads conjugated with an anti H-2 Kb specific antibody. Detection was performed with a FITC-conjugated anti-DNP antibody at 10 μg/mL. The results are depicted in FIG. 6, where the exiting peptides are labeled as follows: […]

[6] = target: H-2 Kb tetramers (PE, APC or BV421) with exiting peptide TFQRK(DNP)PAAF (Mus musculus, UniProt P01901); settings: glycyl-methionine, 4 hours room temperature; for Exchange rate, APC: H-2 Kb APC tetramer; for Exchange rate, BV421: H-2 Kb BV421 tetramer; for Exchange rate, PE: H-2 Kb PE tetramer
Experimental: The mixtures were incubated for 4 hours at room temperature, protected from light.
20 μL of magnetic capture beads were added to wells of a v-bottom 96-well plate for each tested peptide plus wells for control samples. Each test well received 5 μL from the peptide exchange samples. The plate was shaken for 45 minutes at 550 rpm, room temperature, protected from light. After bead rinse, wells received 25 μL of 1× exiting peptide antibody. The plate was shaken for 45 minutes at 550 rpm, room temperature, protected from light. Beads were rinsed, resuspended in 1× assay buffer and run on a FC500 Flow Cytometer. Single beads were gated on FSC vs. SSC and MFI were measured on 500 events per test. Peptide exchange rate was calculated using a calibration curve generated with MFI values from controls.

Substance: ALALEVGEL
% peptide exchange [1]: 85.1%

Substance: ALLAVGATK
% peptide exchange [1]: 25.7%

Substance: AMAPRTLLL
% peptide exchange [2]: 81.62%

Substance: ATDALMTGY
% peptide exchange [2]: 7.74%

Substance: ATVQGQNLK
% peptide exchange [1]: 27.9%

Substance: AVLDGLLSL
% peptide exchange [1]: 90.7%

Substance: CINGVCWTV
% peptide exchange [1]: 85.3%

Substance: CSLWNGPHL
% peptide exchange [1]: 55.2%

Substance: EYILSLEEL
% peptide exchange [1]: 24.2%

Substance: FLSELTQQL
% peptide exchange [2]: 23.65%

Substance: FLYDDNQRV
% peptide exchange [1]: 91.2%

Substance: GLADQLIHL
% peptide exchange [1]: 91.4%
% peptide exchange [2]: 0.86%

Substance: GLAVVTHGL
% peptide exchange [1]: 91.0%

Substance: GYSLKLSKL
% peptide exchange [2]: 37.93%

Substance: ILKEKK(Dnp)VHGV
Performance of the exiting peptide in peptide exchange [3]: performs better in peptide exchange

Substance: IMQIMPYGC
% peptide exchange [1]: 59.9%

Substance: IMQLMPFGC
% peptide exchange [1]: 40.9%

Substance: IRLRPGGKK
% peptide exchange [1]: 25.0%

Substance: IYSTVASSL
% peptide exchange [2]: 100.98%

Substance: LMLGEFLKL [SurA2.M]
Peptide exchange rate, individually in buffered solution versus in the vaccine ([4]; three independent repeats, Student's t-test at p<0.05): not statistically distinguishable
Upper limit of quantification of the peptide exchange assay ([4]; various amounts of peptide per reaction): below 0.2 μg/reaction

Substance: LNMADKKET
% peptide exchange [2]: 10.32%

Substance: LTLGEFLKL
% peptide exchange [1]: 43.6%

Substance: MTYK(DNP)FPVT
Exchangeability of tetramers built with the exiting peptide [5]: allowed exchange with a wide range of peptides

Substance: RAHYNIVTF
% peptide exchange [2]: 85.58%

Substance: RIKDFLRNL
% peptide exchange [1]: 34.0%

Substance: RVRAYTYSK
% peptide exchange [2]: 10.32%

Substance: RYMRWTYRF
% peptide exchange [2]: 101.29%

Substance: SIYRYYGL [Reference Peptide]
Exchange rate, APC ([6]; Reference Peptide 2 μM): 97.08
Exchange rate, APC ([6]; Reference Peptide 20 μM): 99.13
Exchange rate, BV421 ([6]; Reference Peptide 2 μM): 90.56
Exchange rate, BV421 ([6]; Reference Peptide 20 μM): 97.34
Exchange rate, PE ([6]; Reference Peptide 2 μM): 92.72
Exchange rate, PE ([6]; Reference Peptide 20 μM): 100

Substance: SLPPPGTRV
% peptide exchange [1]: 86.6%

Substance: SYVPSAEQI
% peptide exchange [1]: 25.0%

Substance: WMHHNMDLI
% peptide exchange [1]: 89.2%

Substance: WMHKVPASL
% peptide exchange [1]: 87.9%

Substance: YLLEFTPPV
% peptide exchange [1]: 91.9%

Exchangeability of tetramers built with the exiting peptide [5]: not possible
Substance: YTVK(DNP)FALV
